Laboratory results as given in patent publication US6479435B1, “Diaryl ethers and processes for their preparation and herbicidal and desiccant compositions containing them” (ISK Americas Incorporated, priority 1997, dated 2002).

Tests used:
Broadleaf Weeds = assay: Pre-emergent application in combination with other herbicides, percent control of broadleaf weeds; format: in vivo
Experimental: (§1) All plants were grown in 10 cm square plastic pots which were filled with a sandy loam soil mix. For preemerge tests, seeds were planted one day prior to application of the test compounds. Immediately after application, test units of the pre-emerge applications were watered at the soil surface to incorporate the test materials. Subsequently, these test units were bottom-watered.
(§2) All test compounds were dissolved in acetone and applied to the test units in a volume of 187 l/ha. […] Plants were arranged on a shelf so that the top of the canopy (post-emerge) or top of the soil surface (pre-emerge) was 40-45 cm below the nozzle. Pressurized air was used to force the test solution through the nozzle as it was mechanically advanced (via electrically driven chain drive) over the top of all test plants/pots. This application simulates a typical commercial field herbicide application.
(§3) At 14 days after application of the test materials, phytotoxicity ratings were recorded. A rating scale of 0-100 was used as previously described in Research Methods in Weed Science, 2nd edition, B. Truelove, Ed., Southern Weed Science Society, Auburn University, Auburn, Ala., 1977. Briefly, “0” corresponds to no damage and “100” corresponds to complete death of all plants in the test unit. This scale was used both to determine efficacy against weed species and damage to crop species. Herbicide activity data for various compounds of this invention, which are shown by compound number in Tables 1-9, are shown in Tables 13 and 14.
(§4) (Note: Weed species abbreviations are from the Composite List of Weeds published by the Weed Science Society of America, 1989.)
The following examples illustrate the utility of combinations of compounds of this invention and existing herbicides. The methods used are identical to those for the application of single compounds except the commercial formulations of existing herbicides were added to the spray mixture in the appropriate amounts before spraying. […]
(§5) Combination Example 2. Pre-emergent Application of Compound 9-1 with Dimethenamid

Grass Weeds = assay: Pre-emergent application in combination with other herbicides, percent control of grass weeds; format: in vivo; settings: 1121 g ai/ha
Experimental: as §1, §2, §3, §4
The following examples illustrate the utility of combinations of compounds of this invention and existing herbicides. The methods used are identical to those for the application of single compounds except the commercial formulations of existing herbicides were added to the spray mixture in the appropriate amounts before spraying.
Combination Example 1. Pre-emergent Application of Compound 9-1 with Metolachlor
as §5

Compound	Percent Control of Broadleaf Weeds ABUTH (Broadleaf Weeds; 520 g ai/ha) [%]	Percent Control of Broadleaf Weeds AMARE (Broadleaf Weeds; 520 g ai/ha) [%]	Percent Control of Broadleaf Weeds AMBEL (Broadleaf Weeds; 520 g ai/ha) [%]	Percent Control of Broadleaf Weeds CASOB (Broadleaf Weeds; 520 g ai/ha) [%]	Percent Control of Broadleaf Weeds CHEAL (Broadleaf Weeds; 520 g ai/ha) [%]	Percent Control of Broadleaf Weeds IPOHE (Broadleaf Weeds; 520 g ai/ha) [%]	Percent Control of Grass Weeds DIGSA (Grass Weeds; Combination Example 2) [%]	Percent Control of Grass Weeds ECHCG (Grass Weeds; Combination Example 2) [%]	Percent Control of Grass Weeds SETVI (Grass Weeds; Combination Example 2) [%]	Percent Control of Grass Weeds SORHA (Grass Weeds; Combination Example 2) [%]	Percent Control of Broadleaf Weeds ABUTH (Broadleaf Weeds; 1121 g ai/ha) [%]	Percent Control of Broadleaf Weeds AMARE (Broadleaf Weeds; 1121 g ai/ha) [%]	Percent Control of Broadleaf Weeds AMBEL (Broadleaf Weeds; 1121 g ai/ha) [%]	Percent Control of Broadleaf Weeds CASOB (Broadleaf Weeds; 1121 g ai/ha) [%]	Percent Control of Broadleaf Weeds CHEAL (Broadleaf Weeds; 1121 g ai/ha) [%]	Percent Control of Broadleaf Weeds IPOHE (Broadleaf Weeds; 1121 g ai/ha) [%]	Percent Control of Grass Weeds DIGSA (Grass Weeds) [%]	Percent Control of Grass Weeds ECHCG (Grass Weeds) [%]	Percent Control of Grass Weeds SETVI (Grass Weeds) [%]	Percent Control of Grass Weeds SORHA (Grass Weeds) [%]
COCC(C)N(C(=O)CCl)c1c(C)csc1C (centres unmarked) [Dimethenamid, reference compound]	40	100	40	40	30	0	100	100	100	100	–	–	–	–	–	–	–	–	–	–
CCc1cccc(C)c1N(C(=O)CCl)C(C)COC (centres unmarked) [Metolachlor, reference compound]	–	–	–	–	–	–	–	–	–	–	20	100	30	10	90	20	100	100	100	100
